Experimental data taken from patent US11440910B2, “Pesticidally active heterocyclic derivatives with sulfur containing substituents” (SYNGENTA PARTICIPATIONS AG, priority 2017, dated 2022).
Values belong to the molecule of their own block, whether it stands above or below them.

Tests used:
[1] = system: Myzus persicae (Green peach aphid); assay: Example B5: Myzus persicae, sunflower leaf discs sprayed; assay type: in vivo; conditions: foliar, 144 h, application rate 200 ppm, mixed ages, 6 days after infestation
Method: Example B5: Myzus Persicae (Green Peach Aphid)
Sunflower leaf discs were placed onto agar in a 24-well microtiter plate and sprayed with aqueous test solutions prepared from 10′000 ppm DMSO stock solutions. After drying, the leaf discs were infested with an aphid population of mixed ages. The samples were assessed for mortality 6 days after infestation.

[2] = system: Spodoptera littoralis (Egyptian cotton leaf worm); assay: Example B1: Spodoptera littoralis, cotton leaf discs sprayed; assay type: in vivo; conditions: foliar, 72 h, application rate 200 ppm, L1 larvae, 3 days after infestation, read-out: control (at least one of mortality, anti-feedant effect, growth inhibition)
Method: Example B1: Spodoptera Littoralis (Egyptian Cotton Leaf Worm)
Cotton leaf discs were placed onto agar in 24-well microtiter plates and sprayed with aqueous test solutions prepared from 10′000 ppm DMSO stock solutions. After drying the leaf discs were infested with five L1 larvae. The samples were assessed for mortality, anti-feeding effect, and growth inhibition in comparison to untreated samples 3 days after infestation. Control of Spodoptera littoralis by a test sample is given when at least one of the categories mortality, anti-feedant effect, and growth inhibition is higher than the untreated sample.

[3] = system: Diabrotica balteata (Corn root worm); assay: Example B4: Diabrotica balteata, maize sprouts sprayed; assay type: in vivo; conditions: 96 h, application rate 200 ppm, L2 larvae, 4 days after infestation, read-out: effect in at least one of the two categories (mortality or growth inhibition)
Method: Example B4: Diabrotica Balteata (Corn Root Worm)
Maize sprouts placed onto an agar layer in 24-well microtiter plates were treated with aqueous test solutions prepared from 10′000 ppm DMSO stock solutions by spraying. After drying, the plates were infested with L2 larvae (6 to 10 per well). The samples were assessed for mortality and growth inhibition in comparison to untreated samples 4 days after infestation.

[4] = system: Euschistus heros (Neotropical brown stink bug); assay: Example B8: Euschistus heros, soybean leaves sprayed; assay type: in vivo; conditions: 120 h, application rate 200 ppm, N2 nymphs, 5 days after infestation, read-out: effect in at least one of the two categories (mortality or growth inhibition)
Method: Example B8: Euschistus Heros (Neotropical Brown Stink Bug)
Soybean leaves on agar in 24-well microtiter plates were sprayed with aqueous test solutions prepared from 10′000 ppm DMSO stock solutions. After drying the leaves were infested with N2 nymphs. The samples were assessed for mortality and growth inhibition in comparison to untreated samples 5 days after infestation.

[5] = system: Plutella xylostella (Diamond back moth); assay: Example B3: Plutella xylostella, artificial diet; assay type: in vivo; conditions: 120 h, application rate 200 ppm, L2 larvae, 5 days after infestation, read-out: effect in at least one of the two categories (mortality or growth inhibition)
Method: Example B3: Plutella Xylostella (Diamond Back Moth)
24-well microtiter plates with artificial diet were treated with aqueous test solutions prepared from 10′000 ppm DMSO stock solutions by pipetting. After drying, the plates were infested with L2 larvae (10 to 15 per well). The samples were assessed for mortality and growth inhibition in comparison to untreated samples 5 days after infestation.

[6] = system: Spodoptera littoralis (Egyptian cotton leaf worm); assay: Example B2: Spodoptera littoralis, systemic test via lettuce roots in agar; assay type: in vivo; conditions: 144 h, test rate 12.5 ppm, 6 days after infestation, read-out: effect in at least one of the three categories (mortality, anti-feeding, or growth inhibition)
Description: Example B2: Spodoptera Littoralis (Egyptian Cotton Leaf Worm)
Test compounds were applied by pipette from 10′000 ppm DMSO stock solutions into 24-well plates and mixed with agar. Lettuce seeds were placed onto the agar and the multi well plate was closed by another plate which contained also agar. After 7 days the compound was absorbed by the roots and the lettuce grew into the lid plate. The lettuce leaves were then cut off into the lid plate. Spodoptera eggs were pipetted through a plastic stencil onto a humid gel blotting paper and the lid plate was closed with it. The samples were assessed for mortality, anti-feedant effect and growth inhibition in comparison to untreated samples 6 days after infestation.

[7] = system: Myzus persicae (Green peach aphid); assay: Example B6: Myzus persicae, roots of pea seedlings in test solution; assay type: in vivo; conditions: 144 h, test rate 24 ppm, mixed ages, 6 days after placing seedlings into test solutions
Method: Example B6: Myzus Persicae (Green Peach Aphid)
Roots of pea seedlings infested with an aphid population of mixed ages were placed directly into aqueous test solutions prepared from 10′000 DMSO stock solutions. The samples were assessed for mortality 6 days after placing seedlings into test solutions.

[8] = system: Bemisia tabaci (Cotton white fly); assay: Example B7: Bemisia tabaci, cotton leaf discs sprayed; assay type: in vivo; conditions: foliar, 144 h, application rate 200 ppm, adult white flies, 6 days after incubation
Method: Example B7: Bemisia Tabaci (Cotton White Fly)
Cotton leaf discs were placed on agar in 24-well microtiter plates and sprayed with aqueous test solutions prepared from 10′000 ppm DMSO stock solutions. After drying the leaf discs were infested with adult white flies. The samples were checked for mortality 6 days after incubation.

melting point: 222 to 223 °C
Structure (SMILES): CCS(=O)(=O)c1cc(C(C)(C#N)C#N)cnc1-c1nc2cc(C(F)(F)F)ncc2n1C [Compound P1, 2-[5-ethylsulfonyl-6-[3-methyl-6-(trifluoromethyl)imidazo[4,5-c]pyridin-2-yl]-3-pyridyl]-2-methyl-propanedinitrile]

Structure (SMILES): CCS(=O)(=O)c1cc(C(C)(C)C#N)cnc1-c1nc2cc(C(F)(F)F)nnc2n1C [Compound P2, 2-[5-ethylsulfonyl-6-[7-methyl-3-(trifluoromethyl)imidazo[4,5-c]pyridazin-6-yl]-3-pyridyl]-2-methyl-propanenitrile]
mortality at 200 ppm [1]: ≥ 80% | percent control (mortality, anti-feedant effect or growth inhibition) at 200 ppm [2]: ≥ 80% | percent effect (mortality or growth inhibition) at 200 ppm [3]: ≥ 80% | percent effect (mortality or growth inhibition) at 200 ppm [4]: ≥ 80% | percent effect (mortality or growth inhibition) at 200 ppm [5]: ≥ 80% | percent effect (mortality, anti-feeding or growth inhibition) at 12.5 ppm [6]: ≥ 80% | mortality at 24 ppm [7]: ≥ 80% | mortality at 200 ppm [8]: ≥ 80%

Structure (SMILES): CCC(C#N)(CC)c1cnc(-c2nc3cc(C(F)(F)F)ncc3n2C)c(S(=O)(=O)CC)c1 [Compound P3, 2-ethyl-2-[5-ethylsulfonyl-6-[3-methyl-6-(trifluoromethyl)imidazo[4,5-c]pyridin-2-yl]-3-pyridyl]butanenitrile]
percent effect (mortality or growth inhibition) at 200 ppm [3]: ≥ 80% | percent effect (mortality or growth inhibition) at 200 ppm [5]: ≥ 80%

Structure (SMILES): CCC(C#N)c1cnc(-c2nc3cc(C(F)(F)F)ncc3n2C)c(S(=O)(=O)CC)c1 (centres unmarked) [Compound P4, 2-[5-ethylsulfonyl-6-[3-methyl-6-(trifluoromethyl)imidazo[4,5-c]pyridin-2-yl]-3-pyridyl]butanenitrile]
mortality at 200 ppm [1]: ≥ 80% | percent effect (mortality or growth inhibition) at 200 ppm [3]: ≥ 80% | percent effect (mortality or growth inhibition) at 200 ppm [5]: ≥ 80%

Structure (SMILES): CCS(=O)(=O)c1cc(C(C)(C)C#N)cnc1-c1nc2cc(C(F)(F)F)ncc2n1C [Compound P5, 2-[5-ethylsulfonyl-6-[3-methyl-6-(trifluoromethyl)imidazo[4,5-c]pyridin-2-yl]-3-pyridyl]-2-methyl-propanenitrile]
mortality at 200 ppm [1]: ≥ 80% | percent control (mortality, anti-feedant effect or growth inhibition) at 200 ppm [2]: ≥ 80% | percent effect (mortality or growth inhibition) at 200 ppm [3]: ≥ 80% | percent effect (mortality or growth inhibition) at 200 ppm [4]: ≥ 80% | percent effect (mortality or growth inhibition) at 200 ppm [5]: ≥ 80% | mortality at 24 ppm [7]: ≥ 80% | mortality at 200 ppm [8]: ≥ 80%

Structure (SMILES): CCS(=O)(=O)c1cc(C(C)C#N)cnc1-c1nc2cc(C(F)(F)F)ncc2n1C (centres unmarked) [Compound P6, 2-[5-ethylsulfonyl-6-[3-methyl-6-(trifluoromethyl)imidazo[4,5-c]pyridin-2-yl]-3-pyridyl]propanenitrile]
percent effect (mortality or growth inhibition) at 200 ppm [3]: ≥ 80% | percent effect (mortality or growth inhibition) at 200 ppm [4]: ≥ 80% | mortality at 24 ppm [7]: ≥ 80%

Structure (SMILES): CCOC(=O)C(C)(C#N)c1cnc(-c2nc3cc(C(F)(F)F)ncc3n2C)c(S(=O)(=O)CC)c1 (centres unmarked) [Compound P9, ethyl 2-cyano-2-[5-ethylsulfonyl-6-[3-methyl-6-(trifluoromethyl)imidazo[4,5-c]pyridin-2-yl]-3-pyridyl]propanoate]
percent effect (mortality or growth inhibition) at 200 ppm [4]: ≥ 80% | percent effect (mortality or growth inhibition) at 200 ppm [5]: ≥ 80%

Structure (SMILES): CCS(=O)(=O)c1cc(C(C#N)C(C)C)cnc1-c1nc2cc(C(F)(F)F)ncc2n1C (centres unmarked) [Compound P10, 2-[5-ethylsulfonyl-6-[3-methyl-6-(trifluoromethyl)imidazo[4,5-c]pyridin-2-yl]-3-pyridyl]-3-methyl-butanenitrile]
mortality at 200 ppm [1]: ≥ 80% | percent effect (mortality or growth inhibition) at 200 ppm [3]: ≥ 80% | percent effect (mortality or growth inhibition) at 200 ppm [5]: ≥ 80% | mortality at 24 ppm [7]: ≥ 80%

Structure (SMILES): CCSc1cc(C(C)(C)C#N)ccc1-c1nc2cc(C(F)(F)F)nnc2n1C [Compound P11, 2-[3-ethylsulfanyl-4-[7-methyl-3-(trifluoromethyl)imidazo[4,5-c]pyridazin-6-yl]phenyl]-2-methyl-propanenitrile]
percent effect (mortality or growth inhibition) at 200 ppm [3]: ≥ 80% | percent effect (mortality or growth inhibition) at 200 ppm [4]: ≥ 80% | mortality at 200 ppm [8]: ≥ 80%

Structure (SMILES): CCS(=O)(=O)c1cc(C(C)(C)C#N)ccc1-c1nc2cc(C(F)(F)F)nnc2n1C [Compound P12, 2-[3-ethylsulfonyl-4-[7-methyl-3-(trifluoromethyl)imidazo[4,5-c]pyridazin-6-yl]phenyl]-2-methyl-propanenitrile]
mortality at 200 ppm [1]: ≥ 80% | percent effect (mortality or growth inhibition) at 200 ppm [3]: ≥ 80% | percent effect (mortality or growth inhibition) at 200 ppm [4]: ≥ 80% | percent effect (mortality or growth inhibition) at 200 ppm [5]: ≥ 80% | mortality at 24 ppm [7]: ≥ 80% | mortality at 200 ppm [8]: ≥ 80%

Structure (SMILES): CCSc1cc(C(C)C#N)ccc1-c1nc2cc(C(F)(F)F)nnc2n1C (centres unmarked) [Compound P13, 2-[3-ethylsulfanyl-4-[7-methyl-3-(trifluoromethyl)imidazo[4,5-c]pyridazin-6-yl]phenyl]propanenitrile]
percent effect (mortality or growth inhibition) at 200 ppm [4]: ≥ 80%

Structure (SMILES): CCS(=O)(=O)c1cc(C(F)(F)C#N)cnc1-c1nc2cc(C(F)(F)F)ncc2n1C [Compound P15, 2-[5-ethylsulfonyl-6-[3-methyl-6-(trifluoromethyl)imidazo[4,5-c]pyridin-2-yl]-3-pyridyl]-2,2-difluoro-acetonitrile]
mortality at 200 ppm [1]: ≥ 80% | percent effect (mortality or growth inhibition) at 200 ppm [3]: ≥ 80% | percent effect (mortality or growth inhibition) at 200 ppm [4]: ≥ 80% | mortality at 24 ppm [7]: ≥ 80%

Structure (SMILES): CCSc1cc(C(C)(C)C#N)ccc1-c1nc2cc(C(F)(F)F)ncc2n1C [Compound P16, 2-[3-ethylsulfanyl-4-[3-methyl-6-(trifluoromethyl)imidazo[4,5-c]pyridin-2-yl]phenyl]-2-methyl-propanenitrile]
percent effect (mortality or growth inhibition) at 200 ppm [3]: ≥ 80% | percent effect (mortality or growth inhibition) at 200 ppm [4]: ≥ 80%

melting point: 202 to 204 °C
Structure (SMILES): CCS(=O)(=O)c1cc(C(C)(F)C#N)cnc1-c1nc2cc(C(F)(F)F)ncc2n1C (centres unmarked) [Compound P18, 2-[5-ethylsulfonyl-6-[3-methyl-6-(trifluoromethyl)imidazo[4,5-c]pyridin-2-yl]-3-pyridyl]-2-fluoro-propanenitrile]

Structure (SMILES): CCS(=O)(=O)c1cc(C(C)(C)C#N)cnc1-c1nc2cc(Br)ncc2n1C [Compound P19, 2-[6-(6-bromo-3-methyl-imidazo[4,5-c]pyridin-2-yl)-5-ethylsulfonyl-3-pyridyl]-2-methyl-propanenitrile]
percent effect (mortality or growth inhibition) at 200 ppm [4]: ≥ 80% | mortality at 24 ppm [7]: ≥ 80%

melting point: 212 to 213 °C
Structure (SMILES): CCS(=O)(=O)c1cc(C(C)(C)C#N)cnc1-c1nc2cc(C(F)(F)C(F)(F)F)ncc2n1C [Compound P20, 2-[5-ethylsulfonyl-6-[3-methyl-6-(1,1,2,2,2-pentafluoroethyl)imidazo[4,5-c]pyridin-2-yl]-3-pyridyl]-2-methyl-propanenitrile]
